Measured values as given in patent US10336697B2, “Spiro[cyclobutane-1,3′-indolin]-2′-one derivatives as bromodomain inhibitors” (Orion Corporation, priority 2015, dated 2019).

target: Bet BRD4 full length bromo-domain protein (Homo sapiens, UniProt O60885); test: Bet bromodomain TR-FRET assay (displacement of acetyl histone peptide); assay type: binding; settings: Bet BRD4 full length bromodomain protein, 300 nM acetyl histone peptide substrate, read-out: IC50

Row | SMILES | IC50
1 | COc1ccccc1S(=O)(=O)Nc1cc(C(C)c2ccccn2)c2c(c1)C1(CCC1)C(=O)N2 (stereo not drawn) [Compound 123, 2-Methoxy-N-(2′-oxo-7′-(1-(pyridin-2-yl)ethyl)spiro [cyclobutane-1,3′-indolin]-5′-yl)benzenesulfonamide] | < 600 nM
2 | CN1CCc2ccc(-c3cc(NS(=O)(=O)c4ccc(F)cc4F)cc4c3NC(=O)C43CCC3)cc2C1=O [Compound 6, 2,4-Difluoro-N-(7′-(2-methyl-1-oxo-1,2,3,4-tetrahydroisoquinolin-7-yl)-2′-oxospiro[cyclobutane-1,3′-indolin]-5′-yl)benzenesulfonamide] | 600 to 1000 nM
3 | O=C1Nc2c(NC3CCOCC3)cc(NS(=O)(=O)c3ccc(F)cc3F)cc2C12CCC2 [Compound 18, 2,4-Difluoro-N-(2′-oxo-7′-((tetrahydro-2H-pyran-4-yl)amino)spiro[cyclobutane-1,3′-indolin]-5′-yl)benzenesulfonamide] | < 600 nM
4 | COc1ccccc1S(=O)(=O)Nc1cc(C(=O)NC2CCN(C)CC2)c2c(c1)C1(CCC1)C(=O)N2 [Compound 60, 5′-(2-Methoxyphenylsulfonamido)-N-(1-methylpiperidin-4-yl)-2′-oxospiro[cyclobutane-1,3′-indoline]-7′-carboxamide] | < 600 nM
5 | COc1ccccc1S(=O)(=O)Nc1cc(OC2CCNCC2)c2c(c1)C1(CCC1)C(=O)N2 [compound 199, 2-Methoxy-N-(2′-oxo-7′-(piperidin-4-yloxy)spiro[cyclobutane-1,3′-indolin]-5′-yl)benzenesulfonamide] | < 600 nM
6 | CN1CCC(Oc2cc(NS(=O)(=O)c3ccc(Cl)cc3F)cc3c2NC(=O)C32CCC2)C1 (stereo not drawn) [Compound 138, 4-Chloro-2-fluoro-N-(7′-((1-methylpyrrolidin-3-yl)oxy)-2′-oxospiro[cyclobutane-1,3′-indolin]-5′-yl)benzenesulfonamide] | < 600 nM
7 | COc1ccccc1S(C)(=O)=Nc1cc(N)c2c(c1)C1(CCC1)C(=O)N2 (stereo not drawn) [Compound-182, 7′-Amino-5′-(((2-methoxyphenyl)(methyl)(oxo)-l6-sulfanylidene)amino)spiro[cyclobutane-1,3′-indolin]-2′-one] | > 1000 nM
8 | CCOC(=O)N1CCC(Nc2cc(NS(=O)(=O)c3ccc(F)cc3F)cc3c2NC(=O)C32CCC2)CC1 [Compound 22, Ethyl 4-((5′-(2,4-difluorophenylsulfonamido)-2′-oxospiro [cyclobutane-1,3′-indolin]-7′-yl)amino)piperidine-1-carboxylate] | 600 to 1000 nM
9 | COc1ccccc1S(=O)(=O)Nc1cc(OC(=O)N2CCOCC2)c2c(c1)C1(CCC1)C(=O)N2 [Compound 170, 5′-((2-Methoxyphenyl)sulfonamido)-2′-oxospiro[cyclobutane-1,3′-indolin]-7′-yl morpholine-4-carboxylate] | < 600 nM
10 | O=C(NC1CCNCC1)c1cc(NS(=O)(=O)c2ccc(F)cc2F)cc2c1NC(=O)C21CCC1 [Compound 66, 5′-(2,4-Difluorophenylsulfonamido)-2′-oxo-N-(piperidin-4-yl)spiro[cyclobutane-1,3′-indoline]-7′-carboxamide] | < 600 nM
11 | CN1CCC(Oc2cc(NS(=O)(=O)c3ccccc3F)cc3c2NC(=O)C32CCC2)CC1 [compound 128] | < 600 nM
12 | O=C1Nc2c(NC3CCc4cc(F)ccc43)cc(NS(=O)(=O)c3ccc(F)cc3F)cc2C12CCC2 (stereo not drawn) [Compound 26, 2,4-Difluoro-N-(7′-((5-fluoro-2,3-dihydro-1H-inden-1-yl)amino)-2′-oxospiro[cyclobutane-1,3′-indolin]-5′-yl)benzenesulfonamide] | > 1000 nM
13 | CN1CCc2ccc(-c3cc(NS(=O)(=O)c4ccc(F)cc4F)cc4c3NC(=O)C43CCC3)cc2C1 [Compound 106, 2,4-Difluoro-N-(7′-(2-methyl-1,2,3,4-tetrahydroisoquinolin-7-yl)-2′-oxospiro[cyclobutane-1,3′-indolin]-5′-yl)benzenesulfonamide] | < 600 nM
14 | CN1CCCC(Nc2cc(NS(=O)(=O)c3ccc(F)cc3F)cc3c2NC(=O)C32CCC2)C1 (single isomer, unassigned) [Compound 35, 2,4-Difluoro-N-(7′-((1-methylpiperidin-3-yl)amino)-2′-oxospiro[cyclobutane-1,3′-indolin]-5′-yl)benzenesulfonamide] | 600 to 1000 nM
15 | COc1ccccc1S(C)(=O)=Nc1cc(NC2CCN(C)CC2)c2c(c1)C1(CCC1)C(=O)N2 (stereo not drawn) [Compound-183, 5′-(((2-Methoxyphenyl)(methyl)(oxo)-l6-sulfanylidene)amino)-7′-((1-methylpiperidin-4-yl)amino)spiro[cyclobutane-1,3′-indolin]-2′-one] | < 600 nM
16 | O=C1Nc2c(-c3ccc4cn[nH]c4c3)cc(NS(=O)(=O)c3ccc(F)cc3F)cc2C12CCC2 [Compound 7, N-(7′-(1H-indazol-6-yl)-2′-oxospiro[cyclobutane-1,3′-indolin]-5′-yl)-2,4-difluorobenzenesulfonamide] | 600 to 1000 nM
17 | CN1CCC(CCc2cc(NS(=O)(=O)c3ccc(F)cc3F)cc3c2NC(=O)C32CCC2)CC1 [Compound 116, 2,4-Difluoro-N-(7′-(2-(1-methylpiperidin-4-yl)ethyl)-2′-oxospiro-[cyclobutane-1,3′-indolin]-5′-yl)benzenesulfonamide] | < 600 nM

Row | SMILES | IC50
18 | COc1ccccc1S(=O)(=O)Nc1cc(OC(C)c2ccccn2)c2c(c1)C1(CCC1)C(=O)N2 (single isomer, unassigned) [Compound 150, 2-Methoxy-N-(2′-oxo-7′-(1-(pyridin-2-yl)ethoxy)spiro[cyclobutane-1,3′-indolin]-5′-yl)benzenesulfonamide] | 600 to 1000 nM
19 | CC1CC(Oc2cc(NS(=O)(=O)c3ccc(Cl)cc3F)cc3c2NC(=O)C32CCC2)CC(C)N1 (stereo not drawn) [compound 201, 4-Chloro-N-(7′-((2,6-dimethylpiperidin-4-yl)oxy)-2′-oxospiro[cyclobutane-1,3′-indolin]-5′-yl)-2-fluorobenzenesulfonamide] | < 600 nM
20 | CN1CCN(C(=O)c2cc(NS(=O)(=O)c3ccc(F)cc3F)cc3c2NC(=O)C32CCC2)CC1 [Compound 47, 2,4-Difluoro-N-(7′-(4-methylpiperazine-1-carbonyl)-2′-oxospiro[cyclobutane-1,3′-indolin]-5′-yl)benzenesulfonamide] | > 1000 nM
21 | COc1ccccc1S(=O)(=O)Nc1cc(C(C)c2cccnc2)c2c(c1)C1(CCC1)C(=O)N2 (stereo not drawn) [Compound 122, 2-Methoxy-N-(2′-oxo-7′-(1-(pyridin-3-yl)ethyl)spiro[cyclobutane-1,3′-indolin]-5′-yl)benzenesulfonamide] | < 600 nM
22 | CC1CC(Oc2cc(NS(=O)(=O)c3ccc(Cl)cc3F)cc3c2NC(=O)C32CCC2)CC(C)N1C (stereo not drawn) [compound 195, 4-Chloro-2-fluoro-N-(2′-oxo-7′-((1,2,6-trimethylpiperidin-4-yl)oxy)spiro[cyclobutane-1,3′-indolin]-5′-yl)benzenesulfonamide] | < 600 nM
23 | Cn1cnc2ccc(-c3cc(NS(=O)(=O)c4ccc(F)cc4F)cc4c3NC(=O)C43CCC3)cc21 [Compound 5, 2,4-Difluoro-N-(7′-(1-methyl-1H-benzo[d]imidazol-6-yl)-2′-oxospiro[cyclobutane-1,3′-indolin]-5′-yl)benzene sulphonamide] | < 600 nM
24 | O=C(Nc1cccnc1)c1cc(NS(=O)(=O)c2ccc(F)cc2F)cc2c1NC(=O)C21CCC1 [Compound 51, 5′-(2,4-Difluorophenylsulfonamido)-2′-oxo-N-(pyridin-3-yl)spiro[cyclobutane-1,3′-indoline]-7′-carboxamide] | 600 to 1000 nM
25 | COc1ccccc1S(=O)(=O)Nc1cc(OC2CCCN(C)CC2)c2c(c1)C1(CCC1)C(=O)N2 (stereo not drawn) [Compound 140, 2-Methoxy-N-(7′-((1-methylazepan-4-yl)oxy)-2′-oxospiro[cyclobutane-1,3′-indolin]-5′-yl)benzenesulfonamide] | < 600 nM
26 | CN(C)CCOc1cc(NS(=O)(=O)c2ccc(Cl)cc2F)cc2c1NC(=O)C21CCC1 [Compound 163, 4-Chloro-N-(7′-(2-(dimethylamino)ethoxy)-2′-oxospiro[cyclobutane-1,3′-indolin]-5′-yl)-2-fluorobenzenesulfonamide] | < 600 nM
27 | COc1ccccc1S(=O)(=O)Nc1cc(OCc2ccccn2)c2c(c1)C1(CCC1)C(=O)N2 [Compound 158, 2-Methoxy-N-(2′-oxo-7′-(pyridin-2-ylmethoxy)spiro[cyclobutane-1,3′-indolin]-5′-yl)benzenesulfonamide] | < 600 nM
28 | CC(C)Oc1ccccc1S(=O)(=O)Nc1cc(OC2CCN(C)CC2)c2c(c1)C1(CCC1)C(=O)N2 [Compound-184, 2-Isopropoxy-N-(7′-((1-methylpiperidin-4-yl)oxy)-2′-oxospiro[cyclobutane-1,3′-indolin]-5′-yl)benzenesulfonamide] | < 600 nM
29 | COc1ccccc1S(=O)(=O)Nc1cc(OC[C@@H]2CCCN2C)c2c(c1)C1(CCC1)C(=O)N2 [Compound 139, (S)-2-methoxy-N-(7′-((1-methylpyrrolidin-2-yl)methoxy)-2′-oxospiro[cyclobutane-1,3′-indolin]-5′-yl)benzenesulfonamide] | < 600 nM
30 | COc1ccccc1S(=O)(=O)Nc1cc(Oc2ccccn2)c2c(c1)C1(CCC1)C(=O)N2 [Compound 124, 2-Methoxy-N-(2′-oxo-7′-(pyridin-2-yloxy)spiro[cyclobutane-1,3′-indolin]-5′-yl)benzenesulfonamide] | < 600 nM
31 | CC(C)(O)C1CCN(C(=O)c2cc(NS(=O)(=O)c3ccc(F)cc3F)cc3c2NC(=O)C32CCC2)CC1 [Compound 59, 2,4-Difluoro-N-(7′-(4-(2-hydroxypropan-2-yl)piperidine-1-carbonyl)-2′-oxospiro[cyclobutane-1,3′-indolin]-5′-yl)benzenesulfonamide] | > 1000 nM
32 | CN1CCC(Oc2cc(NS(=O)(=O)c3ccc(F)cc3F)cc3c2NC(=O)C32CCC2)CC1 [Compound 171] | < 600 nM
33 | COc1ccccc1S(=O)(=O)Nc1cc(OC2CCN(C(C)C)CC2)c2c(c1)C1(CCC1)C(=O)N2 [Compound 136, N-(7′-((1-isopropylpiperidin-4-yl)oxy)-2′-oxospiro[cyclobutane-1,3′-indolin]-5′-yl)-2-methoxybenzenesulfonamide] | < 600 nM
